Literature values, collected in patent US20230293541A1, “METHODS OF TREATING OPHTHALMIC CONDITIONS WITH ENHANCED PENETRATION COMPOSITIONS OF BIMATOPROST AND TIMOLOL” (Somerset Therapeutics, LLC, priority 2022, published 2023).

Assays:
[1] = patients starting on prostaglandin monotherapy
[2] = under certain conditions
[3] = three-month comparison, glaucoma and ocular hypertension
[4] = in comparison to latanoprost and travoprost

Structure (SMILES)	rate of adjunctive medication use [1] [%]	API stability [2]	mean pressures (IOP) versus latanoprost [3]	corneal penetration [4]
CC(C)OC(=O)CCC/C=C\C[C@@H]1[C@@H](/C=C/[C@@H](O)COc2cccc(C(F)(F)F)c2)[C@H](O)C[C@@H]1O [travoprost]	22.5	experiencing degradation		
CCNC(=O)CCC/C=C\C[C@@H]1[C@@H](/C=C/[C@@H](O)CCc2ccccc2)[C@H](O)C[C@@H]1O [bimatoprost, (Z)-7-[(1R, 2R, 3R, 5S)-3,5-Dihydroxy-2-[(1E, 3S)˜3-hydroxy-5-phenyl˜1-pentenyl]cyclopentyl]˜5-N-ethylheptenamid]	23.2	remain stable	lower mean pressures than latanoprost at every time point studied	poor corneal penetration
CC(C)OC(=O)CCC/C=C\C[C@@H]1[C@@H](CC[C@@H](O)CCc2ccccc2)[C@H](O)C[C@@H]1O [latanoprost]	30.2	experiencing degradation		
